# Assay results: article PMC3742231 (International Journal of Molecular Sciences, 2013)
# Assays:
# [1] = target: CYP2D6 (Homo sapiens, UniProt P10635); experiment: N-in-one CYP inhibition assay in human liver microsomes; type of inhibition
# Description: (§1) Human liver microsomes were prepared and pooled from ten human livers (HL20–24,28–32) as previously described. Human liver samples were obtained from the University Hospital of Oulu as surplus tissue from cadaver kidney transplant donors. The collection of surplus tissue was approved by the Ethics Committee of the Medical Faculty of the University of Oulu, Finland. All donors were Caucasians ranging in age from 21 to 62 years; four were female and six were male. Detailed information on each donor has been published previously. Protein concentrations were measured using the Bradford method.
# (§2) In vitro inhibition of CYP isoforms was first assessed using the N-in-one approach (also called the cocktail approach). CYP-selective substrates and reactions are listed in Table 1; concentrations were roughly at or below the respective Michaelis-Menten coefficients. […] A Micromass LCT time-of-flight high-resolution mass spectrometer (Micromass Ltd., Manchester, UK) equipped with a Z-spray electrospray ionization source was used for the monitoring of CYP-selective reactions. Integrated mass chromatogram peak areas were normalized versus internal standards before comparing metabolites in different preparations. More details of the assay are available in previous publications.
# (§3) Dixon, Lineweaver-Burk, Hanes, and Hofstee plots were used for the analysis of the type of inhibition.
# [2] = target: T1, CYP2C8 (Homo sapiens, UniProt P10632); experiment: as above
# T1 sequence (P10632 1-490): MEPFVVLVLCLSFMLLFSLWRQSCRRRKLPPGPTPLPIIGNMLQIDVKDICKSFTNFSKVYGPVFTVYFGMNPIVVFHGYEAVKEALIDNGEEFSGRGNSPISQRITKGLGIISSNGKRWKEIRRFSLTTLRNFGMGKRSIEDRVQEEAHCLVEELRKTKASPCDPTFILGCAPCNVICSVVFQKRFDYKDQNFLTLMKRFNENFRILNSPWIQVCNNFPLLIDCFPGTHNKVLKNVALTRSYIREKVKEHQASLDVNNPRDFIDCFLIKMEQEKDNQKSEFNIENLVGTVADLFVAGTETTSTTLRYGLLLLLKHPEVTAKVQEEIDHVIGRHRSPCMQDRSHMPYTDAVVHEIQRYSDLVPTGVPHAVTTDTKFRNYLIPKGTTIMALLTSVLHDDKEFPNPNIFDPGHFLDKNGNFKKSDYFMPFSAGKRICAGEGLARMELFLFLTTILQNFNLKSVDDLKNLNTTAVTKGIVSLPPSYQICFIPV
# Description: as §1, §2, §3
# [3] = target: T2, CYP2B6 (Homo sapiens, UniProt P20813); experiment: biochemical
# T2 sequence (P20813 1-491): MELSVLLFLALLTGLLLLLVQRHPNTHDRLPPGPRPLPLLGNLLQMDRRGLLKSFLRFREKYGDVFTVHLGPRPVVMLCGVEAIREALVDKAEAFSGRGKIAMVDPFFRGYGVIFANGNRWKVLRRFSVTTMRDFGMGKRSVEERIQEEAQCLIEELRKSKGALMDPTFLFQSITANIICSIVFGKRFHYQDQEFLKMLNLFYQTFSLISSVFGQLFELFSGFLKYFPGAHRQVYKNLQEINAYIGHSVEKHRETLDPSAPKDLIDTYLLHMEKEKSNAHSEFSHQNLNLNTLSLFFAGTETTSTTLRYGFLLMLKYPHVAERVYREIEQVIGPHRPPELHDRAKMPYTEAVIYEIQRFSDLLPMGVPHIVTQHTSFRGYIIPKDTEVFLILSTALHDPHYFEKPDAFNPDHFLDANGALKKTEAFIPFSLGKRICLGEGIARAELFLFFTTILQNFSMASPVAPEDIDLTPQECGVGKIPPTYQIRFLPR
# Description: as §1, §2, §3
# [4] = target: CYP2C19 (Homo sapiens, UniProt P33261); experiment: biochemical; conditions: for IC50: human liver microsomes, probe 2 μM
# CYP2C19, sequence (P33261 whole entry): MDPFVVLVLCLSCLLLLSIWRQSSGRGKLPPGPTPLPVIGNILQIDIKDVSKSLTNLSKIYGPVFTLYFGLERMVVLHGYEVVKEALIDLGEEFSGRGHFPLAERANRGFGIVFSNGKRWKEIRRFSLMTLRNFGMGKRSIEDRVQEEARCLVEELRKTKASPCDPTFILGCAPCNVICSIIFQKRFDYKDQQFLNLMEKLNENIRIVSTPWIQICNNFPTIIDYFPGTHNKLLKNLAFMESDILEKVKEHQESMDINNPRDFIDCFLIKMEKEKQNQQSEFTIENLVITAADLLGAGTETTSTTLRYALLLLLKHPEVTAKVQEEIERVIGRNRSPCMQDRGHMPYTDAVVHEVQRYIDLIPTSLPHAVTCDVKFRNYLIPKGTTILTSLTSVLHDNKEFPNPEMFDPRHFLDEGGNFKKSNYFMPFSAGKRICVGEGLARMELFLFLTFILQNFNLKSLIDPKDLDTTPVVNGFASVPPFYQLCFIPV
# Description: as §1, §2, §3
# CYP2D6, sequence (P10635 whole entry): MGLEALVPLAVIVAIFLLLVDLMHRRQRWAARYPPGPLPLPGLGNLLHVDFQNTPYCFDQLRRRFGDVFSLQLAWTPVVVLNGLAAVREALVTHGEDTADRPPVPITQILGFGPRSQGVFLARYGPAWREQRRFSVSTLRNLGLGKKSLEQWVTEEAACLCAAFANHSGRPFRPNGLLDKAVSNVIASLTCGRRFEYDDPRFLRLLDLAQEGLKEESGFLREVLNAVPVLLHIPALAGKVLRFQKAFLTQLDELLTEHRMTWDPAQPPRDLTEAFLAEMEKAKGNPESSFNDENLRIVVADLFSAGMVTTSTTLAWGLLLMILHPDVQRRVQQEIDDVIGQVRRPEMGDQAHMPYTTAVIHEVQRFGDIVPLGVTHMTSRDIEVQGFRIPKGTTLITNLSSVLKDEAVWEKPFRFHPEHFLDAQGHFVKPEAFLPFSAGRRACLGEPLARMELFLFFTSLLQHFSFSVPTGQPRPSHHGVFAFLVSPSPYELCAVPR
smiles,measurement,setting,value
OCCOc1ccc(/C(=C(/CCCl)c2ccccc2)c2ccccc2)cc1 [Ospemifene],IC50,[1],48.7 µM
same,Type of inhibition,[1]; results not shown,competitive
same,IC50,[2],36.4 µM
same,Type of inhibition,[2]; results not shown,likely competitive
same,IC50,[3],7.8 µM
same,Type of inhibition,[3]; results not shown,competitive
same,IC50,"[4]; IC50, Omeprazole 5-hydroxylation",22.5 µM
same,IC50,"[4]; IC50, Omeprazole demethylation",47.2 µM
same,Type of inhibition,[4]; results not shown,noncompetitive
